Measured values taken from patent US6472418B1, “Non-peptide NK1 receptors antagonists” (Warner-Lambert Company, priority 1998, dated 2002).
Read-outs that look alike come from different tables or passages of the source.

Experiments:
Human NK1 Receptor = target: T1, Human NK1 Receptor (Homo sapiens, UniProt P25103); assay: In Vitro Human NK1 Receptor Binding Assay ([125I]Bolton-Hunter substance P displacement, IM9 cells)
T1 construct: endogenous in cells; host or cells: Human lymphoma IM9 cells (whole cells)
T1 sequence (P25103 whole entry): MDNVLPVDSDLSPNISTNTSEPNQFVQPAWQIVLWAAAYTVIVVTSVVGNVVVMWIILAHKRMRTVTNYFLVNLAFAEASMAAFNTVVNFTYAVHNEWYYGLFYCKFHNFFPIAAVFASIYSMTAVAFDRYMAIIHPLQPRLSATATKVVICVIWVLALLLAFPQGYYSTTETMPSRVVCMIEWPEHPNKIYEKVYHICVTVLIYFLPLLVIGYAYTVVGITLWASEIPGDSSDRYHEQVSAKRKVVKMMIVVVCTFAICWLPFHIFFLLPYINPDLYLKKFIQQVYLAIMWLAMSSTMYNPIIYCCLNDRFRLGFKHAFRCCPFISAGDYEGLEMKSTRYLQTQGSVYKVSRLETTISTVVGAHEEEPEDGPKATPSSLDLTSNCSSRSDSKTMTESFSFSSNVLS
How it was run: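 Radioligand displacement on whole IM9 human lymphoma cells (2.5×10^6 cells/mL) using [125I]Bolton-Hunter substance P (0.05-0.1 nM), 50 min at 21° C in Tris pH 7.4/MnCl2 buffer with protease inhibitors. Non-specific binding defined by […] [Sar9, Met(O2)11] substance P. Filtration, gamma counting, iterative curve fitting.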

[1] = Human lymphoma IM9 cells, [125I]Bolton-Hunter substance P (0.05-0.1 nM), 50 min at 21° C., Table 1, read-out: NK1 binding IC50
[2] = Human lymphoma IM9 cells, [125I]Bolton-Hunter substance P, Table 3, array-synthesis products, read-out: IC50 (nM) hNK1
[3] = human NK1 receptor, IM9 cells, [125I]Bolton-Hunter substance P, read-out: IC50 (nM) hNK1
[4] = Table 5, [125I]Bolton-Hunter substance P displacement, human IM9 cells, read-out: IC50 (nM) hNK1

In the case of `C[C@H](NC(=O)[C@@](C)(Cc1c[nH]c2ccccc12)NC(=O)NCc1cc2ccccc2o1)c1ccccc1` (relative stereo) [Example 22, 2-(3-Benzofuran-2-ylmethyl-ureido)-3-(1H-indol-3-yl)-2-methyl-N-(1-phenyl-ethyl)-propionamide, [R-(R*,S*)]], the IC50 (Human NK1 Receptor; [1]) is reported as 2.9 nM and the melting point is reported as 176 to 178 °C.
In the case of `C[C@H](NC(=O)[C@@](C)(Cc1c[nH]c2ccccc12)NCc1cc2ccccc2o1)c1ccccc1` (relative stereo) [Example 18, 2-[(Benzofuran-2-ylmethyl)-amino]-3-(1H-indol-3-yl)-2-methyl-N-(1-phenyl-ethyl)-propionamide, [R-(R*,S*)]], the IC50 (Human NK1 Receptor; [1]) is reported as 4.4 nM and the melting point is reported as 118 to 121 °C.
`C[C@H](NC(=O)[C@@H](Cc1c[nH]c2ccccc12)NCCc1cc2ccccc2o1)c1ccccc1` (relative stereo) [Example 7, 2-(2-Benzofuran-2-yl-ethylamino)-3-(1H-indol-3-yl)-N-(1-phenyl-ethyl)-propionamide, [R-(R*,S*)]] showed an IC50 (Human NK1 Receptor; [1]) of 3.3 nM and a melting point of 105 to 107 °C.
In the case of `CN(C)C[C@H](NC(=O)[C@@](C)(Cc1c[nH]c2ccccc12)NCc1cc2ccccc2o1)c1ccccc1` [Example 4, 2-[(Benzofuran-2-ylmethyl)-amino]-N-(2-dimethylamino-1-phenyl-ethyl)-3-(1H-indol-3-yl)-2-methyl-propionamide, (R,R)], the IC50 (Human NK1 Receptor; [1]) is reported as 1210 nM and the melting point is reported as 130 to 134 °C.
`C[C@H](NC(=O)[C@@](C)(Cc1c[nH]c2ccccc12)NCc1cc2ccccc2o1)c1ccncc1` (relative stereo) [Example 3, 2-[(Benzofuran-2-ylmethyl)-amino]-3-(1H-indol-3-yl)-2-methyl-N-(1-pyridin-4-yl-ethyl)-propionamide, [R(R*,S*)]] gave an IC50 (Human NK1 Receptor; [1]) of 6 nM and a melting point of 66 to 69 °C.
Molecule `C[C@H](NC(=O)[C@@](C)(Cc1c[nH]c2ccccc12)NCc1coc2ccccc12)c1ccccc1` (relative stereo) [Example 19, 2-[(Benzofuran-3-ylmethyl)-amino]-3-(1H-indol-3-yl)-2-methyl-N-(1-phenyl-ethyl)-propionamide, [R-(R*,S*)]] has an IC50 (Human NK1 Receptor; [1]) of 58 nM and a melting point of 104 to 106 °C.
For `C[C@H](NC(=O)[C@@H](Cc1c[nH]c2ccccc12)NCc1cnc2ccccc2c1)c1ccccc1` (relative stereo) [Example 11, 3-(1H-Indol-3-yl)-N-(1-phenyl-ethyl)-2-[(quinolin-3-ylmethyl)-amino]-propionamide, [R-(R*,S*)]], the IC50 (Human NK1 Receptor; [1]) was 46 nM and the melting point was 161 to 163 °C.
For `C[C@H](NC(=O)[C@@H](Cc1c[nH]c2ccccc12)NCc1cc2ccccc2s1)c1ccccc1` [Example 10, 2-[(Benzo[b]thiophen-2-ylmethyl)-amino]-3-(1H-indol-3-yl)-N-(1-phenyl-ethyl)-propionamide], the IC50 (Human NK1 Receptor; [1]) was 51 nM and the melting point was 102 to 108 °C.
Molecule `C[C@](Cc1c[nH]c2ccccc12)(NCc1cc2ccccc2o1)C(=O)NCc1cccc(O)c1` [Example 5, 2-[(Benzofuran-2-ylmethyl)-amino]-N-(3-hydroxy-benzyl)-3-(1H-indol-3-yl)-2-methyl-propionamide, R] has an IC50 (Human NK1 Receptor; [1]) of 295 nM and a melting point of 60 to 69 °C.
With `C[C@H](NC(=O)[C@@H](Cc1c[nH]c2ccccc12)NCc1nc2ccccc2[nH]1)c1ccccc1` (relative stereo) [Example 9, 2-[(1H-Benzoimidazol-2-ylmethyl)-amino]-3-(1H-indol-3-yl)-N-(1-phenyl-ethyl)-propionamide, [R-(R*,S*)]] the IC50 (Human NK1 Receptor; [1]) was 112 nM and the melting point was 148 to 152.5 °C.
In the case of `CC(NC(=O)[C@@](C)(Cc1c[nH]c2ccccc12)NCc1cc2ccccc2o1)c1ccn(C)c1` (stereo in doubt) [Example 2, 2-[(Benzofuran-2-ylmethyl)-amino]-3-(1H-indol-3-yl)-2-methyl-N-[1-(1-methyl-1H-pyrrol-3-yl)-ethyl]-propionamide, [R-(R*,R*)] and [R-(R*,S*)]], the IC50 (Human NK1 Receptor; [1]) is reported as 23 nM and the melting point is reported as 53 to 57 °C.
`CC(C)(NC(=O)[C@@](C)(Cc1c[nH]c2ccccc12)NCc1cc2ccccc2o1)c1ccccc1` [Example 1, 2-[(Benzofuran-2-ylmethyl)-amino]-3-(1H-indol-3-yl)-2-methyl-N-(1-methyl-1-phenyl-ethyl)-propionamide, (R)] showed an IC50 (Human NK1 Receptor; [1]) of 591 nM and a melting point of 57 to 62 °C.
In the case of `O=C(NCC1CC2CCC1C2)C(Cc1c[nH]c2ccccc12)NCc1cc2ccccc2o1` (centres unmarked) [Example 266, 2-[(Benzofuran-2-ylmethyl)-amino]-N-bicyclo[2.2.1]-hept-2-ylmethyl-3-(1H-indol-3-yl)-propionamide], the IC50 (Human NK1 Receptor; [2]) is reported as 633 nM.
For `CC(Cc1c[nH]c2ccccc12)(NCc1cc2ccccc2o1)C(=O)NCC1CCCCC1` (centres unmarked) [compound 27, 2-[(Benzofuran-2-ylmethyl)-amino]-N-cyclohexylmethyl-3-(1H-indol-3-yl)-2-methyl-propionamide], the IC50 (Human NK1 Receptor; [3]) was 311 nM.
Molecule `CC1CCC(C)N1CCCCNC(=O)C(C)(Cc1c[nH]c2ccccc12)NCc1cc2ccccc2o1` (centres unmarked) [compound 94, 2-[(Benzofuran-2-ylmethyl)-amino]-N-[4-(2,5-dimethyl-pyrrolidin-1-yl)-butyl]-3-(1H-indol-3-yl)-2-methyl-propionamide] has an IC50 (Human NK1 Receptor; [3]) greater than 10000 nM.
`O=C(NCCc1ccccc1F)C(Cc1c[nH]c2ccccc12)NCc1cc2ccccc2o1` (centres unmarked) [Example 274, 2-[(Benzofuran-2-ylmethyl)-amino]-N-[2-(2-fluoro-phenyl)-ethyl]-3-(1H-indol-3-yl)-propionamide] gave an IC50 (Human NK1 Receptor; [2]) of 264 nM.
`O=C(CNC(=O)C(Cc1c[nH]c2ccccc12)NCc1cc2ccccc2o1)c1ccccc1` (centres unmarked) [Example 237, 2-[(Benzofuran-2-ylmethyl)-amino]-3-(1H-indol-3-yl)-N-(2-oxo-2-phenyl-ethyl)-propionamide] gave an IC50 (Human NK1 Receptor; [2]) of 5340 nM.
Work on `CC(NC(=O)C(C)(Cc1c[nH]c2ccccc12)NCc1ccc(OCCCC(C)(C)C(=O)O)cc1)c1ccccc1` (centres unmarked) [compound 327, 5-(4-{[2-(1H-Indol-3-yl)-1-methyl-1-(1-phenyl-ethylcarbamoyl)-ethylamino]-methyl}-phenoxy)-2,2-dimethyl-pentanoic acid] yielded an IC50 (Human NK1 Receptor; Table 4, [125I]Bolton-Hunter substance P displacement, human IM9 cells, read-out: IC50 (nM) hNK1) greater than 10000 nM.
Work on `Cc1ccc(S(=O)(=O)Oc2cccc(CNC(Cc3c[nH]c4ccccc34)C(=O)NC(C)c3ccccc3)c2)cc1` (centres unmarked) [compound 381] yielded an IC50 (Human NK1 Receptor; [4]) greater than 10000 nM.
In the case of `COc1ccc(CNC(=O)C(C)(Cc2c[nH]c3ccccc23)NCc2cc3ccccc3o2)c(N)c1` (centres unmarked) [compound 188, N-(2-Amino-4-methoxy-benzyl)-2-[(benzofuran-2-ylmethyl)-amino]-3-(1H-indol-3-yl)-2-methyl-propionamide], the IC50 (Human NK1 Receptor; [3]) is reported as 2280 nM.
`CC(NC(=O)C(Cc1c[nH]c2ccccc12)NCC1CSc2c([nH]c3ccccc23)C1=O)c1ccccc1` (centres unmarked) [compound 372] showed an IC50 (Human NK1 Receptor; [4]) greater than 10000 nM.
Work on `CC(C)NC(=O)C(C)(Cc1c[nH]c2ccccc12)NCc1cc2ccccc2o1` (centres unmarked) [compound 92, 2-[(Benzofuran-2-ylmethyl)-amino]-3-(1H-indol-3-yl)-N-isopropyl-2-methyl-propionamide] yielded an IC50 (Human NK1 Receptor; [3]) of 2290 nM.
Molecule `CC(NC(=O)C(Cc1c[nH]c2ccccc12)NCc1ccc(C=Cc2ccccc2)o1)c1ccccc1` (centres unmarked) [compound 362] has an IC50 (Human NK1 Receptor; [4]) greater than 10000 nM.
For `CC(Cc1c[nH]c2ccccc12)(NCc1cc2ccccc2o1)C(=O)NC1Cc2ccccc2C1` (centres unmarked) [compound 113, 2-[(Benzofuran-2-ylmethyl)-amino]-N-indan-2-yl-3-(1H-indol-3-yl)-2-methyl-propionamide], the IC50 (Human NK1 Receptor; [3]) was 463 nM.
`CCC(NC(=O)C(Cc1c[nH]c2ccccc12)NCc1cc2ccccc2o1)c1cccs1` (centres unmarked) [Example 196, 2-[(Benzofuran-2-ylmethyl)-amino]-3-(1H-indol-3-yl)-N-(1-thiophen-2-yl-propyl)-propionamide] showed an IC50 (Human NK1 Receptor; [2]) of 92 nM.
For `CC(NC(=O)C(C)(Cc1c[nH]c2ccccc12)NCc1cc2ccccc2o1)c1ccc(N)cc1` (centres unmarked) [compound 38, N-[1-(4-Amino-phenyl)-ethyl]-2-[(benzofuran-2-ylmethyl)-amino]-3-(1H-indol-3-yl)-2-methyl-propionamide], the IC50 (Human NK1 Receptor; [3]) was 141 nM.
With `CC(Cc1c[nH]c2ccccc12)(NCc1cc2ccccc2o1)C(=O)NCc1ccc(Cl)cc1` (centres unmarked) [compound 64, 2-[(Benzofuran-2-ylmethyl)-amino]-N-(4-chloro-benzyl)-3-(1H-indol-3-yl)-2-methyl-propionamide] the IC50 (Human NK1 Receptor; [3]) was 76 nM.
Molecule `CC(NC(=O)C(Cc1c[nH]c2ccccc12)NCC=Cc1ccc2c(c1)OCO2)c1ccccc1` (centres unmarked) [compound 377] has an IC50 (Human NK1 Receptor; [4]) of 593 nM.
With `CC(Cc1c[nH]c2ccccc12)(NCc1cc2ccccc2o1)C(=O)NCc1ccco1` (centres unmarked) [compound 127, 2-[(Benzofuran-2-ylmethyl)-amino]-N-furan-2-ylmethyl-3-(1H-indol-3-yl)-2-methyl-propionamide] the IC50 (Human NK1 Receptor; [3]) was 191 nM.
`CC(NC(=O)C(Cc1c[nH]c2ccccc12)NCc1cc2ccccc2o1)c1ccc(Br)cc1` (centres unmarked) [Example 290, 2-[(Benzofuran-2-ylmethyl)-amino]-N-[1-(4-bromo-phenyl)-ethyl]-3-(1H-indol-3-yl)-propionamide] showed an IC50 (Human NK1 Receptor; [2]) of 8 nM.
With `CC(Cc1c[nH]c2ccccc12)(NCc1cc2ccccc2o1)C(=O)NCCc1ccc(O)cc1` (centres unmarked) [compound 143, 2-[(Benzofuran-2-ylmethyl)-amino]-N-[2-(4-hydroxy-phenyl)-ethyl]-3-(1H-indol-3-yl)-2-methyl-propionamide] the IC50 (Human NK1 Receptor; [3]) was greater than 10000 nM.
With `CC(NC(=O)C(C)(Cc1c[nH]c2ccccc12)NCc1cc2ccccc2o1)c1cccc2ccccc12` (centres unmarked) [compound 32, 2-[(Benzofuran-2-ylmethyl)-amino]-3-(1H-indol-3-yl)-2-methyl-N-(1-naphthalen-1-yl-ethyl)-propionamide] the IC50 (Human NK1 Receptor; [3]) was greater than 10000 nM.
